Earlier results on three compounds are cited in US9763897B2, “Therapeutic astaxanthin and phospholipid composition and associated method” (U.S. NUTRACEUTICALS, LLC, priority 2010, dated 2017).

For one data set, the system named is lens epithelial cells. Particulars: umol/L concentrations.
For data set [1] the following is noted: 6 mg per day, eight weeks, healthy adults.
The next data set deals with LDL cholesterol. The following applies: 3.6 mg astaxanthin per day for two weeks.
Data set [2] has as its system LDL cholesterol oxidation. Particulars: 4 mg astaxanthin per day for two weeks.
Data set [3] has as its system pro-oxidant activity of Vioxx (membrane lipid per-oxidation). The following applies: in vitro.
Data set [4] concerns C-Reactive Protein (C-RP).

Regarding `CCCCCCCCCCCCCCCC(=O)O[C@H]1CC(C)(C)C(/C=C/C(C)=C/C=C/C(C)=C/C=C/C=C(C)/C=C/C=C(C)/C=C/C2=C(C)C(=O)[C@@H](OC(=O)CCCCCCCCCCCCCCC)CC2(C)C)=C(C)C1=O` [3R,3′R-astaxanthin dipalmitate, (3R,3′R-astaxanthin dipalmitate, reference compound], where the note is “men, Coral-Hinostroza et al. (2004)”, the “relative absorption of astaxanthin compared to the other two isomers” value is reported as “higher relative absorption”.

Regarding `CC1=C(/C=C/C(C)=C/C=C/C(C)=C/C=C/C=C(C)/C=C/C=C(C)/C=C/C2=C(C)C(=O)[C@@H](O)CC2(C)C)C(C)(C)C[C@H](O)C1=O` [Astaxanthin, 3,3′-dihydroxy-β-β-carotene-4,4′-dione], the “effect on UVB induced lipid per-oxidative mediated cell damage” value with lens epithelial cells was “suppresses UVB induced lipid per-oxidative mediated cell damage”. Further, the “negative effect of supplementation” value in data set [1] is given as “no negative effect”. Also, the “protection of LDL cholesterol against induced in vitro oxidation” value in the data set on LDL cholesterol is reported as “protects LDL cholesterol against induced in vitro oxidation”. Besides, in data set [2], the “reduction of LDL cholesterol oxidation” value is given as 26%. Moreover, the “effect on pro-oxidant activity of Vioxx” value in data set [3] was “negate the pro-oxidant activity of Vioxx”. Also, the “decrease in C-reactive protein scores” value in data set [4] (4 mg astaxanthin for eight weeks) is listed as 21%. In data set [4] (human subjects with high risk C-RP levels, three months of treatment), the “drop in serum C-RP levels” value is reported as 43%.

Turning to `CC1=C(/C=C/C(C)=C/C=C/C(C)=C/C=C/C=C(C)/C=C/C=C(C)/C=C/C2=C(C)C(=O)[C@@H](O)CC2(C)C)C(C)(C)C[C@H](O)C1=O` [free astaxanthin diol], the “uptake relative to esterified astaxanthin” value (human plasma, versus esterified astaxanthin) is given as 4-5 times.
